The target of one data set is T1, nitroreductase (Escherichia coli, UniProt P38489).
T1 construct: purchased Sigma-Aldrich Co. (Shanghai, China); host or cells: Escherichia coli
Nature of the data set: Nitroreductase-mediated BBR reduction, cell-free incubation. It is filed as biochemical. The conditions noted are these: 2-IBA 100 μM, nitroreductase-containing cell-free incubation; read-out: inhibition rate of BBR-to-dhBBR conversion. The procedure: (§1) BBR was incubated with nitroreductase in intestinal bacteria cultures. The reaction mixture consisted of BBR (50 μg/ml), an NADPH-regenerating system and nitroreductase (5 μg/ml) in a final volume of 1 ml under the protection of N2. After incubation for 0, 2, 4, 6 and 12 h at 37 °C, the reaction was terminated by the addition of 1 ml of ice-cold acetonitrile. The samples were then extracted with 1 ml of ethyl acetate after adding 1 ml of 0.5 M sodium hydroxide solution. The organic phase was evaporated to dryness under a nitrogen flow in a water bath at 40 °C. The residue was dissolved with 200 μl of the mobile phase for further analysis. 2-Iodosobenzoic acid (2-IBA), a specific inhibitor of nitroreductase, was used to verify the role of bacterial nitroreductase.

Data set [1] deals with mixture of rat gut bacteria. Kind of data set: BBR-to-dhBBR conversion in rat gut bacteria mixture with nitroreductase inhibitor. Format: cell-based. The conditions noted are these: 2-IBA in BBR incubation with mixture of rat gut bacteria, 12 h. The procedure:
as §1

On the set-up of data set [2]: method as in PMID 21637946, PMID 12530470. The conditions noted are these: cited from earlier work.
The nature of data set [3]: Plasma pharmacokinetics after oral dhBBR or BBR in rats. Format: in vivo, SD rats. The conditions noted are these: SD, rat, plasma, po, 200 mg/kg. The protocol:
The plasma (100 μl) was precipitated with 100 μl of acetonitrile after addition of 10 μl of the internal standard. BBR served as a control in the study. The plasma concentrations of BBR and dhBBR were determined using LC-MS/MS 8040 and LC-MS/MS 8050.

The subject of a further data set is 17 intestinal bacteria. Kind of data set: Anti-bacterial test (MIC, broth microdilution). It is filed as cell-based. The conditions noted are these: 24 h. The procedure:
Seventeen bacterial strains (see above) were used in the susceptibility test for BBR and dhBBR. The bacterial strains, which belong to different species of bacteria, were collected and identified as described above. The minimum inhibitory concentrations (MICs) of BBR and dhBBR after 24 h were determined through the broth microdilution method according to the CLSI guidelines. BBR and dhBBR were tested at a concentration range of 8 to 512 μg/ml. The MIC was defined as the lowest concentration of an agent that prevents turbidity. The experiment was repeated three times. All of the bacterial strains tested in this study (S. aureus ATCC 29213, E. faecalis ATCC 29212, E. coli ATCC 25922, S. aureus 08-43, S. epidermidis 12-12, E. faecium 13-01, E. faecalis 13-01, E. coli 06-05, K. pneumoniae 13-14, Ps. aeruginosa 13-10, A. baumannii 13-02, E. cloacae 13-12, and P. mirabilis 13-01) were facultative anaerobes, of which S. aureus ATCC 29213, E. faecalis ATCC 29212 and E. coli ATCC 25922 were standard strains from ATCC (USA) and served as quality controls. L. casei ATCC 334, L. acidophilus ATCC 4356, B. longum ATCC 15707, and B. breve ATCC 15700 were also tested in this anti-bacterial experiment. Ampicillin was used as the positive control.

Data set [4] can be described thus: Absorption of BBR and dhBBR in Caco-2 cells. The conditions noted are these: human. Format: in vitro ADME. The procedure: A Caco-2 cell assay was conducted using a method reported previously. […] To determine the rate of drug transport in the apical-to-basolateral direction, 200 μl of the compound working solution was added to the filter well (apical compartment), and 800 μl of HBSS was added to the receiver plate (basolateral compartment). Accordingly, to determine the rate of drug transport in the basolateral-to-apical direction, 800 μl of the compound working solution was added to each well of the receiver plate and 200 μl of HBSS was added to the filter well. The plates were incubated for 30 min at 37 °C with shaking at 150 rpm on a rotary shaker. At the end of the transport period, aliquots of 50 μl were removed directly from the apical and basolateral wells and transferred to wells of new plates. Four volumes of cold methanol containing internal standards were added into each well. The samples were centrifuged at 16,000 g for 15 min. Aliquots of 200 μl of the supernatant were used for the LC-MS/MS analysis.

Details of data set [5]: method as in PMID 24174332. The conditions noted are these: patients; cited from earlier work.
Data set [6] is described as follows: Plasma BBR in pseudo germ-free versus conventional rats after oral BBR. It is filed as in vivo. The conditions noted are these: male, SD, rat, 200 mg/kg, oral BBR 200 mg/kg. The procedure: (§2) Male SD rats (180–200 g) were orally treated with cefadroxil (100 mg/kg), terramycin (300 mg/kg) and erythromycin (300 mg/kg) twice a day for 3 days, and pharmacokinetic examination was performed 2 days after final administration. The colon contents of the rats were collected on the first and third days after the final treatment with antibiotics, and the germ-free status was confirmed by culturing fecal samples aerobically on a nutrient agar culture medium. Fecal samples from non-antibiotic-exposed rats served as control samples.
Before oral administration of a single dose of BBR (200 mg/kg), the PGF rats were fasted overnight with free access to water. Blood samples were collected from the posterior orbital venous plexus into a heparinized tube at 0, 0.25, 0.5, 1, 1.5, 2, 3, 4, 6, 8, and 12 h post-BBR treatment and then subjected to the procedure described above. Fecal samples were also collected at 0, 6, 12, 24, 36 and 48 h post-BBR treatment. The samples were stored at −20 °C for further analysis.

Data set [7] is described as follows: Plasma concentration of BBR in KK-Ay mice treated or untreated with antibiotics. Format: in vivo. The conditions noted are these: for Cmax at 14 day: KK-Ay, mouse, plasma, oral, 200 mg/kg, BBR 200 mg/kg qd. The procedure: Blood samples of the mice in Groups 1 and 2 were collected into a heparinized tube 30 min after the oral administration of BBR. The samples were taken at days 1, 3, 6, 10 and 14 of the BBR treatment course. The samples were centrifuged at 10,000 g for 5 min, and the plasma was collected and stored at −80 °C before analysis.

A short description of data set [8]: 72-h cumulative fecal excretion of BBR and dhBBR in pseudo germ-free (PGF) and conventional rats. Format: in vivo, SD rats. The conditions noted are these: oral BBR 200 mg/kg. The protocol: as §2, with “samples. Before oral administration of a single dose of BBR (200 mg/kg), the PGF rats were fasted overnight with free access to water. […] The samples were stored at −20 °C for further analysis.” for “samples.”

Data set [9] is described as follows: Therapeutic effect of BBR on hyperglycemia and hyperlipidemia in KK-Ay mice with or without antibiotics. It is filed as in vivo. From the text: KK-Ay mice with type 2 diabetes (female, 12 ± 1 weeks of age) were purchased from the Institute of Laboratory Animal Sciences, Chinese Academy of Medical Sciences (Beijing, China). […] Antibiotics at the doses described above were orally administered to KK-Ay mice for 3 days before the BBR treatment course, and the pseudo germ-free (PGF) state of the experimental mice was confirmed (see above). Four groups (n = 6 for each group) were used in the experiment: Group1, PGF KK-Ay mice orally treated with antibiotics (qd, at the dosage described above) plus BBR (200 mg/kg, qd) for 2 weeks; Group 2, untreated KK-Ay mice orally treated with BBR (200 mg/kg, qd) for 2 weeks; Group 3, PGF KK-Ay mice orally treated with antibiotics (qd, at a dosage identical to that for Group 1) for 2 weeks; Group 4, untreated KK-Ay mice. The antibiotics were administered in the morning and BBR was administered in the afternoon. All the animals were fed a high-fat diet. […] All of the mice were euthanized on day 14, and blood samples were taken to measure the fasting serum glucose (Glu), triglyceride (TG) and cholesterol (CHO) using Glu, TG and CHO reagent kits (Biosino Bio-Technology and Science INC, Beijing China), respectively. C57BL/6J mice were used as a wild-type reference. The body weights of the mice before, during and after treatments were recorded for 14 days.

The nature of data set [10]: Effect of ions on the dhBBR-to-BBR transformation. The conditions noted are these: EDTA-2Na 10 mM. The protocol:
dhBBR was added into the reaction solution containing FeCl3, CuCl2, ZnCl2, and NaCl (at concentrations of 0.033, 0.333 and 3.33 mM, respectively). Ethylenediaminetetraacetic acid disodium salt (EDTA-2Na, 10 mM), a chelating agent for metal ions, was used in the test.

A short description of data set [11]: Effect of heat inactivation and vitamin C on dhBBR-to-BBR transformation in rat small intestine homogenate. It is filed as in vitro ADME. The conditions noted are these: added to the reaction solution. The procedure: The rats (n = 3) were sacrificed to obtain fresh small intestine homogenate. The homogenate was then boiled for 2 min to inactivate all of the enzymes. After pre-incubation at 37 °C for 2 min, 5 μl of dhBBR (10 mM, dissolved in DMSO) was added into the inactivated homogenate, and fresh homogenate (active one) was used as a reference. The sample was mixed thoroughly and centrifuged at 16,000 g for 5 min. The supernatant was transferred into new tubes, treated with 500 μl of acetonitrile, and then centrifuged. Twenty-microliter aliquots were used for the HPLC analysis.
To examine the oxidative reaction, 100 μl of vitamin C was pre-incubated with the inactivated homogenate; the final concentrations of vitamin C were 95, 9.5 and 0.95 mM. The superoxide anion in the sample was detected with an O2^− ELISA kit (Beijing Biolab Co., Ltd., Beijing, China; lot: 201404) following the manufacturer’s instructions.

On the set-up of data set [12]: method as in PMID 18285556. The conditions noted are these: cited from earlier work.

Where two headings read alike, the source gives them in different places. Some results are limits rather than exact numbers.

The inhibition is the share of the control response that was lost under treatment. The AUC(0-t) is the area under the concentration-time curve up to a stated or last time point. For orientation: Cmax means the peak of the concentration-time curve. As a reminder, the Papp A→B is how fast a substance crosses the layer from the apical side. Lower therefore signals poor permeation.

T1 sequence (P38489 whole entry): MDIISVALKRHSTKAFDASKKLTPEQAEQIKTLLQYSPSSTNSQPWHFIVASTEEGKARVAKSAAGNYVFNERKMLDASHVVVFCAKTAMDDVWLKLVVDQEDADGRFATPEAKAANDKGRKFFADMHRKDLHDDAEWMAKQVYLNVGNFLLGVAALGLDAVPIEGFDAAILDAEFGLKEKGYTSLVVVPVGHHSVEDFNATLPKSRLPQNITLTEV

Take `O=Ic1ccccc1C(=O)O` [2-IBA, 2-iodosobenzoic acid]: the inhibition at 100 µM at nitroreductase was found to be 88.3%. Further, the “inhibition of dhBBR production” value in data set [1] worked out at 78.7%.

For `COc1ccc2cc3[n+](cc2c1OC)CCc1cc2c(cc1-3)OCO2` [BBR, berberine], the water solubility result in [2] is on record as “poor water solubility”. In addition, the AUC(0-t) in data set [3] (oral BBR 200 mg/kg, Fig. 3c curve 2, read-out: AUC(0-t) of BBR in plasma) is 54.6 ng·h/mL; in data set [3] (oral dhBBR 200 mg/kg, read-out: AUC(0-t) of BBR in blood), 262 ng·h/mL; in [6] (conventional SD rat), 70.9 ng·h/mL; in data set [6] (pseudo germ-free rat), 11.9 ng·h/mL. Also, the Cmax was found to be 16.1 ng/mL in [3] (oral BBR 200 mg/kg, Fig. 3c curve 2, read-out: Cmax of BBR in plasma); 52.5 ng/mL in [3] (oral dhBBR 200 mg/kg, read-out: Cmax of BBR in blood); 26 ng/mL in data set [6] (conventional SD rat); 6.92 ng/mL in data set [6] (pseudo germ-free rat). Further, the MIC in the data set with 17 intestinal bacteria (span over 17 strains, read-out: minimal inhibitory concentration (MIC) on the 17 bacteria) was greater than 128 µg/mL; in the data set on 17 intestinal bacteria (read-out: MIC, most of the 17 tested strains), no less than 512 µg/mL. Besides, the efflux ratio at 30 min, 5 μM in [4] (Caco-2, pH 7.4, read-out: efflux ratio (ER)) turned out to be 32.4. The compound also registered a Papp A→B at 30 min, 5 μM in data set [4] (pH 7.4, Caco-2, 5 μM, 30 min) of 0.38 ×10⁻⁶ cm/s. Besides, the “reduction of LDL-c level” value in data set [5] is 10–25%. In addition, in [5], the “reduction of fasting blood glucose level” value is 21–36%. The “reduction of triglyceride level” value in [5] is 20–35%. For the same compound, the highest concentration (Cmax) at 14 day was found to be 28.3 ± 3.41 ng/mL in data set [7] (day 14, mice treated with antibiotics (Group 1)) and 178 ± 57.6 ng/mL in data set [7] (day 14, mice without antibiotics (Group 2)). Moreover, in data set [7] (day 14), the “Folds of Cmax [BBR / (BBR+Antibiotics)]” value came to 6.4 fold. Further, the “Folds of Cmax, Group 2 over Group 1” value in data set [7] (throughout days 1, 3, 6, 10 and 14) is 3.5-6.5 fold. For the same compound, the “total BBR in feces over 72 h, % of the administered amount” value was 27.81% in data set [8] (PGF rats) and 18.67% in data set [8] (untreated (conventional) rats). In addition, in data set [9] (Group 1 vs Group 2, day 14), the “reduction of therapeutic efficacy of BBR on cholesterol by antibiotics” value was 44%. Besides, the “reduction of therapeutic efficacy of BBR on triglyceride by antibiotics” value in data set [9] (Group 1 vs Group 2, day 14) came out at 53%. Further, the “reduction of therapeutic efficacy of BBR on fasting blood glucose by antibiotics” value in [9] (antibiotics before and during BBR (Group 1) vs BBR only (Group 2), day 14) is 42%.

Consider `O=C([O-])CN(CCN(CC(=O)O)CC(=O)O)CC(=O)[O-].[Na+].[Na+]` [EDTA-2Na, Ethylenediaminetetraacetic acid disodium salt], for which, in [10], the “reduction of dhBBR-to-BBR oxidization” value is 5%.

On to `O=C1O[C@H]([C@@H](O)CO)C(O)=C1O` [vitamin C], for which the “effect on dhBBR-to-BBR reversion” value in [11] is reported as “almost completely terminated”.

Turning to dihydroberberine sulfate, the “absorption in the intestine compared with BBR” value in [12] was “better absorption”.

The values are drawn from paper PMC4502414, “Transforming berberine into its intestine-absorbable form by the gut microbiota” (Scientific Reports, 2015).
